What was measured:
[1] = test system: Aβ secretion, CHO cells stably overexpressing APP751; experiment: Aβ secretion from CHO cells stably overexpressing APP751 treated with PP2 or PP3 (FIG. 6); assay type: cell-based; conditions: PP2 5 and 20 μM, PP3 20 μM (highest concentration), time points 1, 3 and 12 hours
Method: Therefore, a line of CHO cells stably overexpressing APP751 form was used, which secretes discrete levels of Aβ. If secretion involves endogenous Src activity, PP2 should be able to inhibit production of Aβ also in this cellular system.
(§1) Human embryonic kidney cells (HEK293) were cultured in Dulbecco's modified minimal medium supplemented with 10% fetal calf serum at 37° C. in a 5% CO2 atmosphere. For transfection, cells were grown for 16 hours in antibiotic-free medium, and transfected with Lipofectamine 2000 (Invitrogen) according to manufacturer's instructions. The total amount of DNA was maintained constant by addition of empty vector DNA. 48 hours after transfection, culture medium were recovered, while cells were harvested in ice-cold phosphate buffer saline (PBS) and gently lysed in lysis buffer (50 mM Tris/HCl, pH 7.5, 150 mM NaCl, 0.5% Triton X-100, 10% glycerol, 50 mM NaF, 1mM Na vanadate), in the presence of a protease inhibitor cocktail (Complete, EDTA-free, Roche). The extracts were clarified by centrifugation at 16,000×g at 4° C., and the protein concentration determined by the Bio-Rad protein assay according to manufacturer's instructions. […] Radioactive samples were resolved on 10% SDS-PAGE and quantitated with a Storm 840 phosphorimager (Amersham Pharmacia Biotech). […]

[2] = test system: Aβ secretion, HEK293 cells transfected with APP695 and SrcYF; experiment: Aβ accumulation in culture medium of HEK293 cells co-transfected with APP695 and active Src (SrcYF), sandwich ELISA (FIG. 5); assay type: cell-based, Human; conditions: exposure for 48 hours to 1, 5 and 20 μM PP2 or PP3, sandwich ELISA on culture medium
Method: as §1, with “48 hours after transfection, culture medium were recovered, while cells were harvested in ice-cold phosphate buffer saline (PBS) and gently lysed in lysis buffer (50 mM Tris/HCl, pH 7.5, 150 mM NaCl, 0.5% Triton X-100, 10% glycerol, 50 mM NaF, 1mM Na vanadate), in the presence of a protease inhibitor cocktail (Complete, EDTA-free, Roche).” left out
HEK293 cells were transfected with APP695 expression vectors. […] HEK293 cells were co-transfected with APP and either empty vector, or active Abl (Abl-PP), or active Src (SrcYF) kinases, and the secretion of APPsec and β were evaluated. […] Both medium and protein extracts have been used in immunoprecipitation experiments for quantitative dosage of radiolabeled APPsec and holo-APP, respectively. […]

Row | SMILES | amount of Aβ [1] | secreted Aβ [2]
1 | CC(C)(C)n1nc(-c2ccc(Cl)cc2)c2c(N)ncnc21 [PP2, 4-amino-5-(4-chlorophenyl)-7-(t-butyl)pyrazolo[3,4d]pyrimidine] | reduces in a dose-dependent manner the amount of Aβ | dose-dependent decrease of secreted AP
2 | Nc1ncnc2c1cnn2-c1ccccc1 [PP3] | has no effect | do not affect Aβ rise by SrcYF transfection

Source: patent US20040176313A1, “Inhibitors of Src kinase for use in alzheimer's disease” (Aventis Pharma S.A., priority 2002, published 2004)
